Test results as given in ChEMBL document CHEMBL6071191, “Correlating Predicted Reactivities with Experimental Inhibition Data of Covalent ChlaDUB1 Inhibitors” (ACS Med Chem Lett, 2024).

Assays:
[1] = biological target: T1, Deubiquitinase and deneddylase Dub1 (Chlamydia trachomatis serovar L2 (strain ATCC VR-902B / DSM 19102 /434/Bu)) (UniProt B0B9A0); experiment: Binding affinity to Chlamydia trachomatis DUB1 using Ub-Rh110Gly as substrate assessed as ratio of Kinact/Ki
T1 sequence (whole entry): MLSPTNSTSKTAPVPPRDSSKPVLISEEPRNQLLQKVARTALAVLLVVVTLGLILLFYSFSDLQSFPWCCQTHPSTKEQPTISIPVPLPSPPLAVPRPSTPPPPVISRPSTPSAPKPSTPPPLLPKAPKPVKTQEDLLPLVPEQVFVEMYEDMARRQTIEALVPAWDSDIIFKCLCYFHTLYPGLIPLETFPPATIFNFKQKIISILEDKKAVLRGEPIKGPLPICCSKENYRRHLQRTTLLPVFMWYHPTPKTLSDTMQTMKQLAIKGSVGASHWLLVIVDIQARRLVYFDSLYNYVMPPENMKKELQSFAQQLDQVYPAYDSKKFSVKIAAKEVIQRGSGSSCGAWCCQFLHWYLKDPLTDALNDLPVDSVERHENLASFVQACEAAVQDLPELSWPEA

[2] = Drug metabolism in PBS assessed as pseudo-first-order rate constant of Cysteine at 50 uM incubated for >10 hrs in presence of L-Cysteine by HPLC-UV analysis; assay type: ADME; conditions: buffer

Ratio [1] [M⁻¹ s⁻¹]	K [2] [h⁻¹]	Compound
15.6	–	COc1ccccc1CNC(=O)c1ccc(CNS(=O)(=O)c2cnc(C#N)nc2)cc1
137	–	COc1ccccc1CNC(=O)c1ccc(CNC(=O)c2coc(C#N)n2)cc1
32.2	–	COc1ccccc1CNC(=O)c1ccc(CNC(=O)c2nc(C#N)ncc2F)cc1

Further lines, the compound ahead of its results:

Compound	Ratio [1] [M⁻¹ s⁻¹]	K [2] [h⁻¹]
N#Cc1nccc(C(=O)NCc2ccc(C(=O)NCc3ccccc3)cc2)n1	10.7	–
COc1ccccc1CNC(=O)c1ccc(CNC(=O)C2CCN(C#N)CC2)cc1	–	0.151
COc1ccccc1CNC(=O)c1ccc(CNC(=O)[C@@H]2CCN(C#N)C2)cc1	0.761	0.824
COc1ccccc1CNC(=O)c1ccc(CNC(=O)[C@H]2CCN(C#N)C2)cc1	1.1	0.87
